Test results from US8952024B2, “Herbicidal pyrimidone derivatives” (E I du Pont de Nemours and Company, priority 2009, dated 2015).

Columns and labels:
Format in all cases: in vivo
[1] = test system: barnyardgrass (Echinochloa crus-galli); assay: Test A pre-/postemergence plant response
Procedure, shortened: (§1)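 Injury was scored visually after roughly ten days against untreated controls, 0 = no effect, 100 = complete control. Test chemicals in a surfactant-containing non-phytotoxic solvent were sprayed either onto soil preemergence or onto one- to two-leaf, 2–10 cm plants postemergence.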

[2] = test system: corn (Zea mays); assay: Test A pre-/postemergence plant response
Procedure, shortened: as §1

[3] = test system: giant foxtail (Setaria faberii); assay: Test A pre-/postemergence plant response; settings: approx. ten days; for Plant response rating, Foxtail, Giant: 500 g ai/ha
Procedure, shortened: as §1

[4] = test system: large crabgrass (Digitaria sanguinalis); assay: Test A pre-/postemergence plant response
Procedure, shortened: as §1

[5] = test system: morningglory (Ipomoea spp.); assay: Test A pre-/postemergence plant response
Procedure, shortened: as §1

[6] = test system: pigweed (Amaranthus retroflexus); assay: Test A pre-/postemergence plant response
Procedure, shortened: as §1

[7] = test system: velvetleaf (Abutilon theophrasti); assay: Test A pre-/postemergence plant response
Procedure, shortened: as §1

[8] = test system: wheat (Triticum aestivum); assay: Test A pre-/postemergence plant response
Procedure, shortened: as §1

[9] = test system: winter barley (Hordeum vulgare); assay: Test B postemergence plant response
Procedure, shortened: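 Plants at the 1- to 4-leaf stage (2 to 18 cm tall), grown in pots of peat moss/vermiculite medium with wetting agent and starter nutrients, received postemergence applications of test chemicals. After 13 to 15 days in a greenhouse, injury was rated visually against untreated controls on a 0 (no effect) to 100 (complete control) scale.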

[10] = test system: barnyardgrass (Echinochloa crus-galli); assay: Test B flooded paddy test; settings: for Plant response rating, Barnyardgrass: Flood (flooded paddy test), 13 to 15 days
Procedure, shortened: (§2)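 Post-flood paddy application: compounds are introduced into water 3 cm deep over the soil, reaching plants at the 2-leaf stage. The water level is maintained, and after 13–15 days under greenhouse conditions, response is judged by eye relative to controls, where 100 means complete control.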

[11] = test system: ducksalad (Heteranthera limosa); assay: Test B flooded paddy test; settings: for Plant response rating, Ducksalad: Flood (flooded paddy test), 13 to 15 days
Procedure, shortened: as §2

[12] = test system: rice (Oryza sativa); assay: Test B flooded paddy test; settings: for Plant response rating, Rice: Flood (flooded paddy test), 13 to 15 days
Procedure, shortened: as §2

[13] = test system: umbrella sedge (Cyperus difformis); assay: Test B flooded paddy test; settings: for Plant response rating, Sedge, Umbrella: Flood (flooded paddy test), 13 to 15 days
Procedure, shortened: as §2

[14] = Postemergence, 125 g ai/ha, visual injury, 0 to 100 scale (0 no effect, 100 complete control), approx. ten days
[15] = Postemergence, 500 g ai/ha, 0 to 100 scale, 0 = no effect, 100 = complete control, approx. ten days
[16] = Preemergence, 125 g ai/ha, 0 to 100 scale, 0 = no effect, 100 = complete control
[17] = Preemergence, 500 g ai/ha, visual injury, 0 to 100 scale (0 no effect, 100 complete control), approx. ten days
[18] = 250 g ai/ha, flooded paddy test, visual rating on 0 to 100 scale (0 no effect, 100 complete control) after 13 to 15 days
[19] = 62 g ai/ha, scale of 0 to 100 where 0 is no effect and 100 is complete control
[20] = 125 g ai/ha, scale 0 to 100, 0 is no effect, 100 is complete control
[21] = Flood, 31 g ai/ha, scale 0 to 100 (0 no effect, 100 complete control)

O=C1CCCC(O)=C1C(=O)c1cnc(-c2cccs2)n(-c2ccccc2)c1=O [Compound 66]
Barnyardgrass plant response rating [1, 14]: 80 | Plant response rating, Barnyardgrass [1, 15]: 90 | Plant response rating, Barnyardgrass [1, 16]: 20 | Plant response rating, Barnyardgrass [1, 17]: 70 | Plant response rating, Corn [2, 15]: 60 | Plant response rating, Corn [2, 16]: 0 | Plant response rating, Corn [2, 17]: 0 | Foxtail, Giant plant response rating ([3]; Postemergence, 125 g ai/ha, visual injury, 0 to 100 scale (0 no effect, 100 complete control)): 70 | Plant response rating, Foxtail, Giant ([3]; Postemergence, 0 to 100 scale, 0 = no effect, 100 = complete control): 80 | Plant response rating, Foxtail, Giant ([3]; Preemergence, visual injury, 0 to 100 scale (0 no effect, 100 complete control)): 80 | Crabgrass, Large plant response rating [4, 14]: 70 | Plant response rating, Crabgrass, Large [4, 15]: 90 | Plant response rating, Crabgrass, Large [4, 16]: 90 | Plant response rating, Crabgrass, Large [4, 17]: 100 | Morningglory plant response rating [5, 14]: 90 | Plant response rating, Morningglory [5, 15]: 90 | Plant response rating, Morningglory [5, 16]: 0 | Plant response rating, Morningglory [5, 17]: 30 | Pigweed plant response rating [6, 14]: 100 | Plant response rating, Pigweed [6, 15]: 100 | Plant response rating, Pigweed [6, 16]: 90 | Plant response rating, Pigweed [6, 17]: 100 | Velvetleaf plant response rating [7, 14]: 100 | Plant response rating, Velvetleaf [7, 15]: 100 | Plant response rating, Velvetleaf [7, 16]: 70 | Plant response rating, Velvetleaf [7, 17]: 100 | Wheat plant response rating [8, 14]: 0 | Plant response rating, Wheat [8, 15]: 0 | Plant response rating, Wheat [8, 16]: 0 | Plant response rating, Wheat [8, 17]: 0 | Plant response rating, Barley ([9]; 31 g ai/ha, postemergence, scale 0 to 100, 0 is no effect, 100 is complete control): 0 | Plant response rating, Barley ([9]; Postemergence, 62 g ai/ha, scale 0 (no effect) to 100 (complete control), 13 to 15 days): 0 | Plant response rating, Barley ([9]; Postemergence, 125 g ai/ha, visual rating after 13 to 15 days, scale 0 (no effect) to 100 (complete control)): 0 | Plant response rating, Barley ([9]; Postemergence, 250 g ai/ha, scale 0 to 100 (0 no effect, 100 complete control)): 0 | Plant response rating, Flood, Barnyardgrass [10, 18]: 45 | Plant response rating, Barnyardgrass [10, 19]: 0 | Plant response rating, Barnyardgrass [10, 20]: 0 | Barnyardgrass plant response rating [10, 21]: 0 | Plant response rating, Flood, Ducksalad [11, 18]: 20 | Plant response rating, Ducksalad [11, 19]: 0 | Plant response rating, Ducksalad [11, 20]: 0 | Ducksalad plant response rating [11, 21]: 0 | Plant response rating, Flood, Rice [12, 18]: 20 | Plant response rating, Rice [12, 19]: 0 | Plant response rating, Rice [12, 20]: 0 | Rice plant response rating [12, 21]: 0 | Plant response rating, Flood, Sedge, Umbrella [13, 18]: 50 | Plant response rating, Sedge, Umbrella [13, 19]: 0 | Plant response rating, Sedge, Umbrella [13, 20]: 30 | Sedge, Umbrella plant response rating [13, 21]: 0
